Common to all, as to assay type: cell-based
The test system of one assay is MDAMB231 cells. The experiment in a line: Crystal violet (CV) proliferation assay, MDAMB231. The conditions noted are these: MDAMB231 (PKCß1 high, Rb positive), 2000 cells. The method, then: (§1) Cell proliferation rates were determined using crystal violet assays. […] Cells were fixed with 25% glutaraldehyde for 10 minutes with shaking, washed 5 times with distilled water, stained with a 1% crystal violet solution (solubilized in 25% methanol) for 10 minutes, washed again 5 times and allowed to dry. De-staining was performed using […] sodium citrate in 50% ethanol followed by quantification using a 96 well spectrophotometer set at an absorbance of 550 nm.

The next assay relates to MDAMB436 cells. Kind of assay: Crystal violet (CV) proliferation assay, MDAMB436. The conditions noted are these: MDAMB436 (PKCß1 low, Rb negative), 2000 cells. Here is the method:
as §1

For assay [1], the system named is Rb-proficient (MDAMB231) and Rb-deficient (BT549 and MDAMB436) TNBC cells. The experiment in a line: CV proliferation assay, TNBC cells (statements across lines). The conditions noted are these: MDAMB231 and BT549 cells (FIG. 4A and TABLE 1). Here is the method: (§2) Cell proliferation rates were determined using crystal violet assays. One thousand cells per well were plated in 96 well tissue culture plates and treated the following day with a bifunctional compound or control for 7 days in replicates of 8. Cells were fixed with 25% glutaraldehyde for 10 minutes with shaking, washed 5 times with distilled water, stained with a 1% crystal violet solution (solubilized in 25% methanol) for 10 minutes, washed again 5 times and allowed to dry. De-staining was performed using […] sodium citrate in 50% ethanol followed by quantification using a 96 well spectrophotometer set at an absorbance of 550 nm.
as §2, with “using CV” for “using crystal violet”, “assays. Two” for “assays. One”, “thousand (2000) or 4000” for “thousand”, “for 6” for “for 7”, “of 6.” for “of 8.”

Another assay addresses T1, PKCβ1 (Homo sapiens, UniProt P05771).
T1 construct: western blots showing expression of PKCβ1 in MCF7AC1 cells treated with 1 μM concentration of the ENDX-PROTACs or ENDX; endogenous in cells; host or cells: MCF7AC1 (ER+ breast cancer cells)
Kind of assay: Western blot, PKCβ1 expression in MCF7AC1 cells. As to conditions: 1 μM, within 72 hours, drugs replenished every 24 hours. Here is the method: For western blotting analysis, cells were treated with vehicle (DMSO) or 1 μM of the indicated ENDX-PROTAC's or parent drug ENDX for 24, 48 and 72 hours with the drugs replenished every 24 hours. 25 μg of protein lysates were run on 10% Bis-Tris XT Criterion precast SDS-PAGE gels and transferred on to PVDF membrane. Following blocking with TB ST-5% milk, the membranes were probed with primary antibodies (1:500 — 1:2000 dilutions) for PKCβ1 (Abcam #136917), ERα (SC #8002), E2F1 (SC #251) and Actin (CS#8457) in TBST-5% BSA and secondary antibodies (1:2000 dilution) in TBST-5% milk. Membranes were developed using chemiluminescent WestPico or WestFemto detection solutions on the Li-Cor Imaging system.

Structures are written as SMILES.

By IC50 is commonly meant the concentration that gives 50% inhibition. A high value points to a need for much substance.

T1 sequence (P05771 whole entry): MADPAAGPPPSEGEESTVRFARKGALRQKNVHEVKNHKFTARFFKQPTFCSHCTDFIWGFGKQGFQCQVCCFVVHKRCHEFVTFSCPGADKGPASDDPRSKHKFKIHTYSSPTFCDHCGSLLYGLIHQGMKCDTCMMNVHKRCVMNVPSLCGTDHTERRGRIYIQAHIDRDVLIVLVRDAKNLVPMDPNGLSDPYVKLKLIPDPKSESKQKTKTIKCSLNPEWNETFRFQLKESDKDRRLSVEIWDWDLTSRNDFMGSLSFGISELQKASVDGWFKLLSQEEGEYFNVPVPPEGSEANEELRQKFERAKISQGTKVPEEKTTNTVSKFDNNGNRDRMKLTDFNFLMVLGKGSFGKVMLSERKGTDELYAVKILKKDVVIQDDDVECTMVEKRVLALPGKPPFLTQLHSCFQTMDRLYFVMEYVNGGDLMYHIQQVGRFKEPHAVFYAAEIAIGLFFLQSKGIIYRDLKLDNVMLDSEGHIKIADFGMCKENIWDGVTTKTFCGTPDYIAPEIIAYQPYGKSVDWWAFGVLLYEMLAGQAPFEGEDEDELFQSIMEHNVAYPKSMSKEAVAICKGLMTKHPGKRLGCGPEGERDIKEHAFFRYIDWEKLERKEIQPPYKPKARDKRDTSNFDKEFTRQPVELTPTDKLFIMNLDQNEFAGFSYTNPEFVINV

With `CC/C(=C(\c1ccc(O)cc1)c1ccc(OCCN(C)C(=O)COCCNC(=O)Cc2ccc3c(c2)CN(C2CCC(=O)NC2=O)C3=O)cc1)c1ccccc1` (stereo not shown) [TC-Pr-007], the concentration for half-maximal inhibition (IC50) worked out at 87 nM in the assay with MDAMB231 cells and 40 nM in the assay with MDAMB436 cells. Also, in assay [1], the induction of apoptosis entry is recorded as “induced apoptosis”. Further, the PKCβ1 polypeptide degradation entry on PKCβ1 is “rapidly degraded PKCβ1 polypeptides”.

The record behind these values is patent publication US20240058318A1, “DEGRADING PKCB1 TO TREAT CANCER” (Mayo Foundation for Medical Education and Research, priority 2020, published 2024).
